Data published in ChEMBL document CHEMBL4411290, “Rogersonins A and B, Imidazolone N-Oxide-Incorporating Indole Alkaloids from a verG Disruption Mutant of Clonostachys rogersoniana” (J Nat Prod, 2019).
Activity calls are given as the source filed them.

Assays:
Format in all cases: functional, cell-based
A549 = assay: Cytotoxicity against human A549 cells assessed as reduction in cell viability at 50 uM incubated for 48 hrs by MTS assay
HeLa = assay: Cytotoxicity against human HeLa cells assessed as reduction in cell viability at 50 uM incubated for 48 hrs by MTS assay
HOS = assay: Cytotoxicity against human HOS cells assessed as reduction in cell viability at 50 uM incubated for 48 hrs by MTS assay
HepG2 = assay: Cytotoxicity against human HepG2 cells assessed as reduction in cell viability at 50 uM incubated for 48 hrs by MTS assay
SH-SY5Y = assay: Cytotoxicity against human SH-SY5Y cells assessed as reduction in cell viability at 50 uM incubated for 48 hrs by MTS assay
ACHN = assay: Cytotoxicity against human ACHN cells assessed as reduction in cell viability at 50 uM incubated for 48 hrs by MTS assay
T-24 = assay: Cytotoxicity against human T24 cells assessed as reduction in cell viability at 50 uM incubated for 48 hrs by MTS assay

Measured: Activity

CC1=[N+]([O-])[C@](Cc2c[nH]c3ccccc23)([C@H](CC(=O)[C@H](C)O)C(=O)O[C@@H](C)CC[C@@H]2C=CC(=O)O2)NC1=O
inactive: all assays above

CC1=[N+]([O-])[C@](Cc2c[nH]c3ccccc23)([C@H]2CC(=O)[C@@H](C)OC(=O)/C=C/[C@@H](O)CC[C@@H](C)OC2=O)NC1=O
inactive: all assays above
